Literature values, collected in US20120258972A1, “Composition and Methods for Treating Hair Loss” (priority 2011, published 2012).

How the values were obtained:
[1] = system: men with androgenic alopecia; settings: ketoconazole shampoo 2% versus 2% minoxidil regimen
C.3H/HeN mice = settings: topical application
[2] = system: serum dihydrotestosterone; settings: oral
male pattern hair loss = settings: oral dutasteride 0.5 mg and 2.5 mg/day; 12 and 24 weeks
[3] = biological target: T1, type I isozyme of 5-alpha reductase (Homo sapiens, UniProt P18405)
T1 sequence (P18405 1-259): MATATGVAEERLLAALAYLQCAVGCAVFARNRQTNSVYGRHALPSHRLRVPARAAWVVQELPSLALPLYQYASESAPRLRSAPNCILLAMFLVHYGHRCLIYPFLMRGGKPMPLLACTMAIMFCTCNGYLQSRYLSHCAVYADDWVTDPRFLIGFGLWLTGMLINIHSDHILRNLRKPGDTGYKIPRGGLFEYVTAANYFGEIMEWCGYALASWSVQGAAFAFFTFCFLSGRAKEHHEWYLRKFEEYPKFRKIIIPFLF

[4] = biological target: T2, Type II isozyme of 5-alpha reductase (Homo sapiens, UniProt P31213)
T2 sequence (P31213 1-254): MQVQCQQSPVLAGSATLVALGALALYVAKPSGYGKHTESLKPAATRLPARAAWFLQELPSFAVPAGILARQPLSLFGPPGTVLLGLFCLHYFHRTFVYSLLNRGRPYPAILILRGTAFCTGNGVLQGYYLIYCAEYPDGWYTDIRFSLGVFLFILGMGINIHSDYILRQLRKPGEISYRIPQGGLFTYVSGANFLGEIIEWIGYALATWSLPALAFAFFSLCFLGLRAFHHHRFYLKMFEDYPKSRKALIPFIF

SMILES | Hair density, size, and proportion of anagen follicles [1] | Effect on hair growth in mice (C.3H/HeN mice) | Decrease of serum dihydrotestosterone [2] | Hair count compared with 5 mg/day finasteride (male pattern hair loss) | Potency relative to finasteride at inhibiting the type I isozyme of 5-alpha reductase [3] | Potency relative to finasteride at inhibiting the Type II isozyme of 5-alpha reductase [4]
CC(=O)N1CCN(c2ccc(OCC3COC(Cn4ccnc4)(c4ccc(Cl)cc4Cl)O3)cc2)CC1 (stereo not shown) [ketoconazole] | improved almost similarly | stimulatory effect on hair growth | – | – | – | –
CC(C)(C)NC(=O)[C@H]1CC[C@H]2[C@@H]3CC[C@H]4NC(=O)C=C[C@]4(C)[C@H]3CC[C@]12C [finasteride] | – | – | about 70% | – | – | –
C[C@]12C=CC(=O)N[C@@H]1CC[C@@H]1[C@@H]2CC[C@]2(C)[C@@H](C(=O)Nc3cc(C(F)(F)F)ccc3C(F)(F)F)CC[C@@H]12 [dutasteride] | – | – | up to 90% | superior hair count | more than 100 times | 3 times
